US9157077B2, “Aminopyrimidine kinase inhibitors” (Jasco Pharmaceuticals, LLC, priority 2009, dated 2015)

Key:
Assay in all cases: IC50 of Compound (nM) (ATP present at Km of enzyme), Table 30
Type in all cases: biochemical
[1] = target: Enzyme (kinases of Table 30) (Homo sapiens, UniProt P11309); settings: Pim-1(h), ATP present at Km of enzyme; read-out: IC50 of Compound, Pim-1(h)
[2] = target: Enzyme (kinases of Table 30) (Homo sapiens, UniProt Q86V86); settings: Pim-3(h), ATP present at Km of enzyme; read-out: IC50 of Compound, Pim-3(h)
[3] = target: Enzyme (kinases of Table 30) (Homo sapiens, UniProt Q9P1W9); settings: Pim-2(h), ATP present at Km of enzyme; read-out: IC50 of Compound, Pim-2(h)
[4] = target: T1, Enzyme (kinases of Table 30) (Homo sapiens, UniProt P68400); settings: CK2(h), ATP present at Km of enzyme
T1 construct: IC50 of Compound, CK2(h); other: CK2(h), ATP present at Km of enzyme
T1 sequence (P68400 whole entry): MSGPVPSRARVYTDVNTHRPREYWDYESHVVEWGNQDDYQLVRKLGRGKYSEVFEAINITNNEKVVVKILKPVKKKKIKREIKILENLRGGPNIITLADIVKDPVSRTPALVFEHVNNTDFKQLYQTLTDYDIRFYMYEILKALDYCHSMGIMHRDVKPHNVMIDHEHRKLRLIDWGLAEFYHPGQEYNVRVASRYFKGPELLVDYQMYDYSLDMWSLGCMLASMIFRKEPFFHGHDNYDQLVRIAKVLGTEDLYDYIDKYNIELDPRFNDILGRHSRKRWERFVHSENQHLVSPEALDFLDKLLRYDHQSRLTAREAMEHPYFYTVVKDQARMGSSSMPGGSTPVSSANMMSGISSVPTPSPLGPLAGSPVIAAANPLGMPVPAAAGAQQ

Enzyme (kinases of Table 30) (Homo sapiens, UniProt P11309), sequence (P11309 whole entry): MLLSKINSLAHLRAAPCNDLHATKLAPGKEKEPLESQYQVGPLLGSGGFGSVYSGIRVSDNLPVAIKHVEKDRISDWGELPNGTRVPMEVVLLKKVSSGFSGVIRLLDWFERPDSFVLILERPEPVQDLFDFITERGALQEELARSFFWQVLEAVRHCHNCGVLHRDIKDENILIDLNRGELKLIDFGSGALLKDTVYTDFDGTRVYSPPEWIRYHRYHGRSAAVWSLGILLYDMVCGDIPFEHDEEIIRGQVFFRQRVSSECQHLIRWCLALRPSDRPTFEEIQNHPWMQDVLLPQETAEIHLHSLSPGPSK
Enzyme (kinases of Table 30) (Homo sapiens, UniProt Q9P1W9), sequence (Q9P1W9 whole entry): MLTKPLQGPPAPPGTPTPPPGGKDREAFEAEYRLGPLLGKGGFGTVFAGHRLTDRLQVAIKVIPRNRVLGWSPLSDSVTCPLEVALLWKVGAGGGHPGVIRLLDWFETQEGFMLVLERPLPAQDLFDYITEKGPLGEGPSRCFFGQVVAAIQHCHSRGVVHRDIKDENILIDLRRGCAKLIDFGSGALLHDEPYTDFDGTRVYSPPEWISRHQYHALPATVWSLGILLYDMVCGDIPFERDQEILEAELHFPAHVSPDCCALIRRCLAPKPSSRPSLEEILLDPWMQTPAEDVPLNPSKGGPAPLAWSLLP

Row | Compound | IC50 [1] [µM] | IC50 [2] [µM] | IC50 [3] [µM] | IC50 [4] [µM]
1 | O=C1NC(=O)/C(=C/c2ccnc(N3CCc4[nH]c5ccccc5c4C3)n2)S1 [compound 91] | 0.255 | 1 | 0.127 | 0.222
2 | CN1CCC(CNc2nccc(/C=C3\SC(=O)NC3=O)n2)CC1 [compound 92] | 0.628 | 0.031 | 0.228 | 0.186
3 | O=C1NC(=O)/C(=C/c2ccnc(N3CCC(CO)CC3)n2)S1 [compound 98] | 0.204 | 0.169 | 0.136 | 0.422
4 | CN(c1nccc(/C=C2\SC(=O)NC2=O)n1)C1CCCCC1 [compound 119] | 0.186 | 0.267 | 0.016 | 0.176
5 | O=C1NC(=O)/C(=C/c2ccnc(NCC3CCNCC3)n2)S1 [compound 147] | 0.258 | 0.031 | 0.09 | 0.134
6 | CN(CC1CCNCC1)c1nccc(/C=C2\SC(=O)NC2=O)n1 [compound 151] | 0.246 | 0.171 | 0.098 | 0.415
7 | O=C1NC(=O)/C(=C/c2ccnc(N3CCC(CNCc4cccnc4)CC3)n2)S1 [compound 176] | 0.487 | 0.018 | 0.108 | 0.669
8 | O=C1NC(=O)/C(=C/c2ccnc(N3CCC(CNCC4CCN4)CC3)n2)S1 (stereo not shown) [compound 208] | 0.288 | 0.065 | 0.043 | 0.129
9 | O=C1NC(=O)/C(=C/c2ccnc(N3CCC(CNc4ccc5ccccc5n4)CC3)n2)S1 [compound 219] | 0.475 | 0.249 | 0.146 | 0.476

These reach a lower IC50 [1]. Values come first.

Row | IC50 [1] [µM] | IC50 [2] [µM] | IC50 [3] [µM] | IC50 [4] [µM] | Compound
10 | 0.166 | 0.298 | 0.127 | 0.361 | O=C1NC(=O)/C(=C/c2ccnc(N3CCC(CCO)CC3)n2)S1 [compound 106]
11 | 0.02 | 0.003 | 0.005 | 0.066 | CN(c1nccc(/C=C2\SC(=O)NC2=O)n1)[C@H]1CCCNC1 [compound 143]
12 | 0.078 | 0.009 | 0.018 | 0.023 | O=C1NC(=O)/C(=C/c2ccnc(N[C@H]3CCCNC3)n2)S1 [compound 144]
13 | 0.096 | 0.022 | 0.087 | 0.705 | O=C1NC(=O)/C(=C/c2ccnc(N3CCC(CNCc4ccncc4)CC3)n2)S1 [compound 177]
